Source: patent US11167007B2, “FOXM1 modulators and uses thereof” (City of Hope, priority 2016, dated 2021)
“Also recorded” adds a separate entry of the source.

Target: T1, AR (Homo sapiens, UniProt P10275)
T1 sequence (P10275 1-920): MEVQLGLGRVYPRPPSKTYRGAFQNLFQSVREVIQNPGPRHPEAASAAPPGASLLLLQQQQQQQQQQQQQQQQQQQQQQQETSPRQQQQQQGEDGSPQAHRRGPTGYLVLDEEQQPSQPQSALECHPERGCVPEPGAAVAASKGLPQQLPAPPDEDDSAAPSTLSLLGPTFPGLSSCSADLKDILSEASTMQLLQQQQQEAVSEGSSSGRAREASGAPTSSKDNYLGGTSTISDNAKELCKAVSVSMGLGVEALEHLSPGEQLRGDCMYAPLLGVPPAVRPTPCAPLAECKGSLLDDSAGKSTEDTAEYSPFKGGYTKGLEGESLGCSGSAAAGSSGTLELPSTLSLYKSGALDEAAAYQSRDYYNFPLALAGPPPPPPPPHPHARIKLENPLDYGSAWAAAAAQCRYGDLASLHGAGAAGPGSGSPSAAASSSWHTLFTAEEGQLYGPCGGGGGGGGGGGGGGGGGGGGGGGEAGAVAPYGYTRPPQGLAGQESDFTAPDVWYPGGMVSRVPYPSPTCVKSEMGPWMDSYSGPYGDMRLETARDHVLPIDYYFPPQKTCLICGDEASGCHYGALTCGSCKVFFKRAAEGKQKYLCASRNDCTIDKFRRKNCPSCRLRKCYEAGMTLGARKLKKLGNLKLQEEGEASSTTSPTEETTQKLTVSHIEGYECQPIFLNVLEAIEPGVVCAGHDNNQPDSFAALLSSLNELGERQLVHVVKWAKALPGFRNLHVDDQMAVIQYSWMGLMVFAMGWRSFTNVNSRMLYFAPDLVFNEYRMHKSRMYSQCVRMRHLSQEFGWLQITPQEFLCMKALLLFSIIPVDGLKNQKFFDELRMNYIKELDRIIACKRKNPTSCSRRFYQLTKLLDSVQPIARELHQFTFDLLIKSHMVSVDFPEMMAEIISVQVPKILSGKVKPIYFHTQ
Assay: FRET-based AR conformation change reporter (CFP-AR-YFP, CARY) in GT1-7 cells
Format: cell-based, mouse
Parameters: Full length AR with cyan fluorescent protein (CFP) or yellow fluorescent protein (YFP) fused to either end (CARY); expressed in transfected cells
Procedure: Creation of stable C-AR-Y reporter cell lines. Cell lines listed above were either transfected with a plasmid or a virus containing the CFP-AR-YFP construct preceding an IRES and hygromycin resistance gene and clonal stable cell lines selected. Qualification criteria for the transfected cell lines were described by Jones et al, ACS Chem Biol, 3(7):412-8 (2008).
Screen for AR-modulators. Screening was performed essentially as described by Jones et al, ACS Chem Biol, 3(7):412-8 (2008). Briefly, C-AR-Y reporter GTI-7 were transferred to 96 well plates and treated with library compounds for 24 hours. […] The compounds to be tested were from the NCI/DTP Open Chemical Repository's Approved Oncology Drugs Set II, Diversity Set II and Mechanistic Set. […] After 24 hours, medium was aspirated and FRET was measured as previously described using a monochromator-based fluorescence plate reader (M1000, Tecan, Inc.). Jones et al, ACS Chem Biol, 3(7):412-8 (2008). […]
In order to identify potential cell-type selective AR modulators, the FRET-based assay of AR conformation change was utilized. […] This produces an accurate and quantifiable read-out of AR activity. […] Candidate hits were then further evaluated by dose response. […] In addition to FRET, AR transcriptional activity was also assessed in several cell lines by transfecting cells with a luciferase reporter driven by the human PSA promoter. […]

Structure (SMILES): C=C(NC(=O)C(=C)NC(=O)c1csc(C2=N[C@@H]3c4csc(n4)[C@H]4NC(=O)c5csc(n5)[C@H]([C@](C)(O)[C@@H](C)O)NC(=O)[C@H]5CSC(=N5)/C(=C/C)NC(=O)[C@H]([C@@H](C)O)NC(=O)c5csc(n5)[C@]3(CC2)NC(=O)[C@H](C)NC(=O)C(=C)NC(=O)C(=C)NC(=O)[C@H](C(C)C)N[C@@H]2C=Cc3c([C@H](C)O)cc(nc3[C@H]2O)C(=O)O[C@@H]4C)n1)C(N)=O [NSC285116, siomycin A]
- inhibition of DHT-induced AR conformation change (dose response, GT1-7 cells, FIG. 1B): dose dependent inhibition
- AR inhibitor (antagonist) activity in words (neuronal GT1-7 cells, FRET or luciferase): greatest potency; also recorded: demonstrated antagonist activity
